Key:
[1] = tested on: Cancer Cells from tissue sample (CSCs, tumour marker+ cells) of a patient with GI cancer (Cholangio Carcinoma, stage 4); assay: Drug response score assay on tissue sample, Example 9; format: cell-based, human; details: for effectiveness on Cancer Cells from tissue sample under laboratory conditions: GI cancer (Cholangio Carcinoma) tissue sample; for Drug sensitivity as calculated by the assay, Tissue: interpretation based on Drug Response Scores; for Drug sensitivity as calculated by the assay, Tissue / Drug response score, conc. 1 / Drug response score, conc. 2 / Drug response score, conc. 3 / Drug response score, conc. 4: tissue sample; for Drug response score, conc. 1: conc. 1 per Table 27B: Pem 20, Niv 20, Atez 100, Pacli 0.05, Irino 5, Beva 1 μg/ml, Len 50, 5-FU 250 ng/ml; for Drug response score, conc. 2: conc. 2 per Table 27B: Pem 40, Niv 40, Atez 200, Pacli 0.1, Irino 10, Beva 2 μg/ml, Len 100, 5-FU 500 ng/ml; for Drug response score, conc. 3: conc. 3 per Table 27B: Pem 100, Niv 80, Atez 400, Pacli 0.2, Irino 25, Beva 4 μg/ml, Len 200, 5-FU 1000 ng/ml; for Drug response score, conc. 4: conc. 4 per Table 27B: Pem 160, Niv 160, Atez 800, Pacli 1, Irino 50, Beva 8 μg/ml, Len 400, 5-FU 2000 ng/ml
Procedure: (§1) Where a tissue sample was provided by each subject, cancer stem cells (CSCs, CD133^+), were isolated from said sample. Tumour marker cells were further isolated from each tissue sample. The remaining cells were designated tumour marker^+ cells.
(§2) First, disaggregation of the tissue samples was carried out. Disaggregation was dependent on the size of the tissue sample and the method of retrieval: • EBUS (Endobronchial Ultrasound Scan and Biopsy)—very small fragments of tissue in solution-spun at 1200 rpm for 5 minutes to collect tissue pellet • Bronchoscopy-larger fragments with larger amount of blood vessels • Broncho-lavage-similar to EBUS, spun at 1200 rpm for 5 minutes to collet tissue pellet
(§3) Once a pellet of tissue obtained, DMEM added to the tissue pellet and the material forced through a […] Smart strainer. Once a cell suspension was achieved, this was spun at 1200 rpm for 5 minutes and the supernatant removed. The cells were then resuspended to a volume of 60 μl.
(§4) 20 μl of FcR block and 20 μl of CD133 microbeads were added to the resuspended cells, followed by incubation for 15 minutes at 4° C. The cells were then processed using an AutoMACS machine. This separates the […] into CD133^+ and CD133^− cells in 2 separate falcons. The falcon tubes are then centrifuged at 1200 rpm for 5 minutes.
(§5) The supernatant was removed from the CD133+falcon tube, and the cells resuspended in DMEM with 2 μl Cell Tox, 2 μl MT and 2 μl MT. 20 μl of the resuspended […] was then plated in each well which will contain an immunotherapy treatment.
(§6) The supernatant was removed from the CD133^− falcon tube, and the CD133^− cells contacted with 40 μl of a tumour separation microbeads cocktail containing microbeads bound to anti-CD31, anti-CD45, anti-Glycophorin-A (Gly-A) and an anti-fibroblast antibody.
(§7) This cocktail is used to separate out tumour marker cells using MACS, by separating out CD31^+, CD45^+ and Gly-A^+ cells. In addition, anti-fibroblast antibody-labelled beads are also used. The cocktail is added to the CD133^− falcon tube, followed by incubation for 15 minutes at 4° C. MACS is carried out using an AutoMACS machine. This cells which are not bound by the CD31, CD45, Gly-A and anti-fibroblast antibody beads are the tumour marker^+ cells.
(§8) The different cell types were each divided equally into populations, depending on the number of drugs/concentrations to be tested and plated on a cell-culture plate pre-coated with a scaffold of polycaprolactone (PCL) electrospun fibres and incubated at 37° C., 5% CO2, for 5 to (typically 10) minutes to facilitate cell attachment. After attachment, an initial imaging step was carried out using the RealTime-Glo™ MT assay from Promega (Catalogue No. G9711)) and the CellTox™ Green Cytotoxicity Assay (Promega, Catalogue No. G8741), carried out according to manufacturer's instructions. Following this initial imagining, the immunotherapeutic and/or chemotherapeutic agents were added to the cell populations as indicated below. After 10 minutes, the imagining step was repeated. The cell populations were then incubated at 37° C., 5% CO2 for 48 hours. The imaging step was then repeated. The cell populations were then re-dosed with the same immunotherapeutic and/or chemotherapeutic agents as indicated below, and incubated at 37° C., 5% CO2 for a further 48 hours. After this second 48 hour incubation, the imagining step was repeated for a final time.
(§9) At the end of this culture period, dose response scores were calculated using a normalized drug response metric as described in Gupta et al. (Communications Biology volume 3, Article number: 42 (2020), https://doi.org/10.1038/s42003-020-0765-z). The start readout for a given immunotherapeutic or chemotherapeutic agent at a given concentration was the to readout for said immunotherapeutic or chemotherapeutic agent at a specified concentration. […]

[2] = tested on: cancer cells derived from the tissue sample of a patient with osteosarcoma; assay: Drug response score assay on tissue sample, Example 10; format: cell-based, human; design: key to Drug response score, conc. 1 / Drug response score, conc. 2 / Drug response score, conc. 3 / Drug response score, conc. 4: normalized drug response metric per Gupta et al. 2020; details: for effectiveness on the cancer cells derived from the tissue sample under laboratory conditions / Drug sensitivity as calculated by the assay (interpretation of Drug Response Scores): osteosarcoma tissue sample; for Drug sensitivity as calculated by the assay (interpretation of Drug Response Scores): Table 33; for Drug response score, conc. 1 / Drug response score, conc. 2 / Drug response score, conc. 3 / Drug response score, conc. 4: tissue sample; for Drug response score, conc. 1: conc. 1 per Table 31: Etop 1, DTIC 1.5, Ifos 0.125, Doce 0.02, Irinotecan 5 μg/ml; for Drug response score, conc. 2: conc. 2 per Table 31: Etop 4, DTIC 3, Ifos 0.25, Doce 0.2, Irinotecan 10 μg/ml; for Drug response score, conc. 3: conc. 3 per Table 31: Etop 20, DTIC 6, Ifos 5, Doce 2, Irinotecan 25 μg/ml; for Drug response score, conc. 4: conc. 4 per Table 31: Etop 100, DTIC 12, Ifos 10, Doce 10, Irinotecan 50 μg/ml
Procedure: as §1, §2, §3, §4, §5, §6, §7, §8, §9

## COc1cc2nccc(Oc3ccc(NC(=O)NC4CC4)c(Cl)c3)c2cc1C(N)=O [Lenvatinib]
[1]
  effectiveness on Cancer Cells from tissue sample under laboratory conditions: S+
  Drug sensitivity as calculated by the assay, Tissue: S+
  Drug response score, conc. 1: 0.9082
  Drug response score, conc. 2: 0.9132
  Drug response score, conc. 3: 0.8739
  Drug response score, conc. 4: 0.9434

## CC(=O)O[C@H]1C(=O)[C@@]2(C)[C@H]([C@H](OC(=O)c3ccccc3)[C@]3(O)C[C@H](OC(=O)[C@H](O)[C@@H](NC(=O)c4ccccc4)c4ccccc4)C(C)=C1C3(C)C)[C@]1(OC(C)=O)CO[C@@H]1C[C@@H]2O [Paclitaxel]
[1]
  Drug response score, conc. 1: 0.9365
  Drug response score, conc. 2: 0.9526
  Drug response score, conc. 3: 0.9072
  Drug response score, conc. 4: 0.9683

## COc1cc([C@@H]2c3cc4c(cc3[C@@H](O[C@@H]3O[C@@H]5CO[C@@H](C)O[C@H]5[C@H](O)[C@H]3O)[C@H]3COC(=O)[C@H]23)OCO4)cc(OC)c1O [Etoposide]
[2]
  effectiveness on the cancer cells derived from the tissue sample under laboratory conditions: show effectiveness
  Drug sensitivity as calculated by the assay (interpretation of Drug Response Scores): Sensitive (S+)
  Drug response score, conc. 1: 0.4829
  Drug response score, conc. 2: 0.0653
  Drug response score, conc. 3: −0.4472
  Drug response score, conc. 4: 0.0955

## Pembrolizumab
[1]
  effectiveness on Cancer Cells from tissue sample under laboratory conditions: S+
  Drug sensitivity as calculated by the assay, Tissue: S+
  Drug response score, conc. 1: 0.9764
  Drug response score, conc. 2: 0.9717
  Drug response score, conc. 3: 0.9672
  Drug response score, conc. 4: 0.8354

## Nivolumab
[1]
  effectiveness on Cancer Cells from tissue sample under laboratory conditions: S+
  Drug sensitivity as calculated by the assay, Tissue: S+
  Drug response score, conc. 1: 0.9424
  Drug response score, conc. 2: 0.9636
  Drug response score, conc. 3: 0.9018
  Drug response score, conc. 4: 0.6833

## CC(=O)O[C@@]12CO[C@@H]1C[C@H](O)[C@@]1(C)C(=O)[C@H](O)C3=C(C)[C@@H](OC(=O)[C@H](O)[C@@H](NC(=O)OC(C)(C)C)c4ccccc4)C[C@@](O)([C@@H](OC(=O)c4ccccc4)[C@H]21)C3(C)C [Docetaxel]
[2]
  effectiveness on the cancer cells derived from the tissue sample under laboratory conditions: resistant
  Drug sensitivity as calculated by the assay (interpretation of Drug Response Scores): Resistant
  Drug response score, conc. 1: −0.5113
  Drug response score, conc. 2: 1.0268
  Drug response score, conc. 3: 0.6693
  Drug response score, conc. 4: −0.6056

## O=P1(NCCCl)OCCCN1CCCl (stereo not shown) [Ifosfamide]
[2]
  effectiveness on the cancer cells derived from the tissue sample under laboratory conditions: show effectiveness
  Drug sensitivity as calculated by the assay (interpretation of Drug Response Scores): Sensitive (S+)
  Drug response score, conc. 1: 0.3183
  Drug response score, conc. 2: 0.8776
  Drug response score, conc. 3: 0.1237
  Drug response score, conc. 4: −0.8671
